Source: patent publication US20100249165A1, “PDZ DOMAIN MODULATORS” (University of Copenhagen, priority 2007, published 2010)
Entries after “also recorded” stand apart in the source; their conditions may differ. Peptide text beside a SMILES is read from it.

Tests used:
PDZ domain of PICK1 = target: T1, PDZ domain of PICK1 (Rattus norvegicus, UniProt Q9EP80); experiment: Fluorescence polarization competition binding to PICK1 (Oregon Green-labeled DAT peptide tracer); details: for Ki: competition with DAT13 OrG tracer 40 nM, fixed subsaturating PICK1, 15 min incubation, means of three independent experiments, read-out: Ki (μM) [SE interval]; for potency in displacing the fluorescently tagged tracer (in words): unlabeled peptide titrated against fixed PICK1 and labeled DAT peptide
T1 construct: The entire coding region of rat PICK1 (residues 2-416); GST (N, cleaved yes); made in house; host or cells: E. coli BL21(DE3) pLysS
T1 sequence (Q9EP80 2-416): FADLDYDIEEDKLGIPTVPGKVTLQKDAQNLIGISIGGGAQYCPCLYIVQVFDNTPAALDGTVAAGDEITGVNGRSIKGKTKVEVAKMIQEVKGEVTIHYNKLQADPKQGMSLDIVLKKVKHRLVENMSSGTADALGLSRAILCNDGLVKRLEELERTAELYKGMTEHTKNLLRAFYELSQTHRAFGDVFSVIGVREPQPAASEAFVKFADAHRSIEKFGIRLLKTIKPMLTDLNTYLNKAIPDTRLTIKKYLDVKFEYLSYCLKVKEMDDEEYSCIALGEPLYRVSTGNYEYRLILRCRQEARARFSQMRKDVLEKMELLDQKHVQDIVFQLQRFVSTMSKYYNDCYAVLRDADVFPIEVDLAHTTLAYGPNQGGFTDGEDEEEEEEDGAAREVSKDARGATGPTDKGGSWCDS
Source text: (§1) The entire coding region of rat PICK1 (residues 2-416) is amplified from a pCINEO vector by PCR using pfu polymerase according to the instructions by the manufacturer (Stratagene, La Jolla, Calif.). The primers used introduce a 5′ restriction site for MunI and 3′ restriction site for AvrII. The PCR fragment is cleaved with MunI and AvrII and cloned into the reading frame of the pET41a vector (Novagen, Madison, Wis.) producing an N-terminally glutathione-S-transferase (GST) fusion of PICK1. The GST-PICK1 fusion was expressed in E. coli BL21(DE3) pLysS (Novagen). The transformed bacteria are grown to OD600 0.6 and expression of the fusion protein is induced with isopropyl-β-D1-thiogalactopyranoside (105 μM) overnight at 30° C. The bacteria are lysed by freezing and thawing in TBS buffer containing [50 mM Tris pH 7.4, 125 mM NaCl, 1% TX-100, 20 μg/mL DNAse I, 1 mM DTT (Sigma)]. The lysate is cleared by centrifugation (rotor SS-34, 18000 rpm, 48000×g, 30 min). The supernatant is incubated with glutathione-sepharose beads (Amersham Biosciences) under slow rotation for 90 minutes at 4° C. The beads are pelleted at 3500 g for 5 minutes and washed in TBS buffer containing [50 mM Tris pH 7.4, 125 mM NaCl, 0.1% TX-100, 1 mM DTT] by three batch washes. The protein is separated from the GST domain by cleavage with thrombin protease (Novagen) in the above wash buffer at 4° C. overnight. Samples of 10 μl are taken from the protein solution for determination of protein concentration and for analysis by SDS-PAGE. Protein determinations are performed using the BCA Protein Assay Reagent kit (Pierce Biotechnology, Inc, Rockford, Ill.) according to manufactures protocol using bovine serum albumin as standard. Gels are stained with GelCode Blue Stain Reagent (Pierce Biotechnology) in order to inspect size, integrity and purity of the protein (Madsen et al., JBC, 280, 20539-48, 2005).
This assay is used to screen for compounds binding to the PDZ binding groove in PICK1. The assay is based on the predicted decrease in rotational diffusion of a fluorescently labeled peptide upon its binding to a larger protein. The decrease in rotational diffusion upon binding of a fluorescent labeled peptide to PICK1 can be detected as an increase in fluorescence polarization (FP). Binding of a small-molecule compound to the PDZ binding groove can be detected by its ability to displace the fluorescently labeled peptide resulting in a decreased in FP (Madsen et al., JBC, 280, 20539-48, 2005).
To perform the assay, compounds are loaded (10 μl of each) in microtiter-plates (88 compounds per 96 well plate) (Corning) at a concentration of 1 mM in DMSO. To each well is added 90 μl buffer containing Tris base (50 mM), NaCl (125 mM), TX-100 (0.1%), PICK1 (0.45 μM) and fluorescently labeled peptide. This peptide corresponds to the C-terminus of a protein that binds to the PICK1 PDZ domain. For example, the peptide can correspond to the last 13 C-terminal residues of the DAT, of protein kinase Cα or of the GluR2 subunit of the AMPA reaceptor. The peptide can be labeled with any fluorophore. For example it can be labeled with a sulfhydryl-reactive derivative of Oregon Green via a cysteine introduced in the peptide. The peptide is used in a concentration of about 40 nM. The final concentration of the compounds in the initial screen is 100 μM. After approximately 15 min of incubation at […] the plates are analyzed in a Chameleon plate-reader (HIDEX) in the FP mode using a 488 nm excitation filter and a 535 nm long pass emission filter. Each measurement is an average of 100 flashes and is carried out four times. FP is calculated according to the equation FP=(IV−g*IH)/(IV+g*IH). As negative and positive controls, respectively, pure DMSO and DMSO with unlabeled DAT peptide (20 μM final conc.) are measured in parallel. All compounds are tested twice on separate plates.

PICK1 = target: T2, PICK1 (Rattus norvegicus, UniProt Q9EP80); experiment: Fluorescence polarization saturation binding of fluorescently labeled peptides to PICK1
T2 construct: The entire coding region of rat PICK1 (residues 2-416); GST (N, cleaved yes); made in house; host or cells: E. coli BL21(DE3) pLysS
T2 sequence (Q9EP80 2-416): as above
Source text: as §1, with “Samples of 10 μl are taken from the protein solution for determination of protein concentration and for analysis by SDS-PAGE. Protein determinations are performed using the BCA Protein Assay Reagent kit (Pierce Biotechnology, Inc, Rockford, Ill.) according to manufactures protocol using bovine serum albumin as standard. Gels are stained with GelCode Blue Stain Reagent (Pierce Biotechnology) in order to inspect size, integrity and purity of the protein (Madsen et al., JBC, 280, 20539-48, 2005).” left out

PICK1 GluR2 interaction = target: T3, PICK1 GluR2 interaction (Rattus norvegicus, UniProt Q9EP80); experiment: FRET between eCFP-GluR2 C29 and eYFP-PICK1 in COS7 cells; assay type: cell-based; details: compound added 20 min prior to image acquisition
T3 construct: expressed in transfected cells; host or cells: COS7 cells, transient transfection
T3 sequence (Q9EP80 whole entry): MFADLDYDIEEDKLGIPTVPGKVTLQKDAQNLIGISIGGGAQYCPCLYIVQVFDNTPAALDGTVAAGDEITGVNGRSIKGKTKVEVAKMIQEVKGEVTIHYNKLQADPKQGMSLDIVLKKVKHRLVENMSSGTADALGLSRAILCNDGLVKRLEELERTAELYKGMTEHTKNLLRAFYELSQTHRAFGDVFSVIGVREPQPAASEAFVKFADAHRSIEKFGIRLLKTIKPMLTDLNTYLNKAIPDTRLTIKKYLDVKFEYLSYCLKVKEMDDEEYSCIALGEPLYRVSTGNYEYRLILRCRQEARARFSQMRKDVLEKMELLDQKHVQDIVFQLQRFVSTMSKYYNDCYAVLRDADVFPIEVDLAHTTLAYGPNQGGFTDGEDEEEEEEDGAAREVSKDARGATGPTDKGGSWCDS
Method: To determine whether a compound is able to block binding of a PD ligand, such as the c-terminus of the AMPA receptor GluR2 subunit, to the PICK1 PDZ domain in a cellular system a Fluorescent Resonance Energy Transfer (FRET) assay can be employed. PICK1 is fused to eYFP (eYFP-PICK1) and the C-terminal 29 residues of the AMPA receptor subunit GluR2 is fused to eCFP (eCFP-GluR2 C29). As a control for specificity of the FRET signal an alanine is added to the C-terminal 29 residues of GluR2 (eCFP-GluR2 C29+A) to disrupt the PDZ interaction. […]
Fluorescence resonance energy transfer (FRET; see Schmid and Sitte, 2003) is measured with an epi-fluorescence microscope (Carl Zeiss TM210, Germany) using the “three-filter method” according to Xia and Liu (2001). […]
Media are replaced by Krebs-HBS buffer (10 mM HEPES/120 mM NaCl/3 mM KCl/2 mM CaCl2/2 mM MgCl2), and images are taken using a 63× oil objective and a LUDL filter wheel that allows for rapid exchange of filters (less than 100 ms). The system is equipped with the following fluorescence filters: CFP filter (ICFP; exc.: 436 nm, dichr.: 455 nm, em.: 480 nm), YFP filter (IYFP; exc.: 500 nm, dichr.: 515 nm, em.: 535 nm) and FRET filter (IFRET: excitation=436 nm, dichroic mirror=455 nm, emission=535 nm). […] Background fluorescence is subtracted from all images and fluorescence intensity was measured in cytosolic regions in all images. […]

[1] = target: T4, interaction between PICK1 and a DAT-peptide fused to GST (Rattus norvegicus, UniProt Q9EP80); experiment: GST-DAT pull-down assay of PICK1; assay type: binding; details: PICK1 band on SDS-PAGE compared with control pull-down
T4 construct: The entire coding region of rat PICK1 (residues 2-416); GST (N, cleaved yes); made in house; host or cells: E. coli BL21(DE3) pLysS
T4 sequence (Q9EP80 2-416): as the sequence (Q9EP80 2-416) above
Method: To verify binding of active compounds identified in the FP screen, a biochemical pulldown assay can be employed.
A fusion between GST and the 24 C-terminal amino acids of the dopamine transporter (GST DAT C24) is expressed in BL21(DE3)pLysS (Novagen) using the pET41a vector (Novagen, Madison, Wis.) and purified as described for PICK1 but without digestion with thrombin.
5 μl dry volume of glutathione-coated sepharose beads (Pharmacia) with bound GST alone or GST DAT C24 are suspended in 200 μl TBS buffer containing as follows [50 mM Tris pH 7.4, 125 mM NaCl, 0.1% TX-100, 1 mM DTT (Sigma) and PICK1 0.5 μM]. The compounds to be tested are added in DMSO to a final concentration of 200 μM (2% DMSO final concentrtaion). The last 11 amino acids of the C-terminus of the GLT1b glutamate transporter (60 μM final) and pure DMSO (2%) can be used as a positive and negative control, respectively.
The samples are incubated at 4° C. under slow rotation for 30 min. The beads are centrifuged at 4000 g for 5 min and subsequently washed in TBS buffer and recentrifuged. The beads containing bound protein are eluted in loading buffer and analyzed by 12% SDS-PAGE and proteins are stained with Gelcode blue stain reagent (Pierce). Active compounds i.e. a blocked pull-down are recognized by a reduced PICK1 band on the SDS-PAGE gel compared to the control pull-down. […]

O=C1C(=O)c2cc([N+](=O)[O-])ccc2-c2ccccc21 [w, 2-Nitro-phenanthrene-9,10-dione]
Ki (PDZ domain of PICK1): 4.4 µM

O=C1C(=Cc2cc(Br)ccc2OCc2ccccc2)C(=O)c2ccccc21 [v, 2-(2-Benzyloxy-5-bromo-benzylidene)-indan-1,3-dione]
Ki (PDZ domain of PICK1): 7.7 µM

CCOc1cc(Cl)c(Cl)c(C=O)c1O [d, 2,3-Dichloro-5-ethoxy-6-hydroxy-benzaldehyde]
Ki (PDZ domain of PICK1): 67 µM

PKCα peptide: peptide corresponding to the 13 C-terminal residues of PKCα, type I PDZ binding sequence -QSAV (NPQFVHPILQSAV; UniProt P17252 660-672, looked up, fragment)
fold lower apparent affinity than the DAT peptide (PICK1): ~10 fold

CCOC(=O)NC(=O)/C(C#N)=C\c1ccc(Cl)c(Cl)c1 [j, [(Z)-2-Cyano-3-(3,4-dichlorophenyl)-acryloyl]-carbamic acid ethyl ester]
FRET between eYFP-PICK1 and eCFP-GluR2 C29 (in words) (PICK1 GluR2 interaction; compared to vehicle (1% DMSO)): specifically reduced; also recorded: significantly reduced | FRET between eYFP-PICK1 and eCFP-GluR2 C29+A (in words) (PICK1 GluR2 interaction; specificity control construct): no effect | pull-down of PICK1 by GST-DAT (in words) [1]: inhibition; also recorded: inhibited | Ki (PDZ domain of PICK1): 40 µM

CCOC(=O)c1ccc(-c2ccc(/C=C3/C(=O)NN(c4ccc(C)c(Cl)c4)C3=O)o2)cc1 [t, 4-{5-[1-(3-Chloro-4-methyl-phenyl)-3,5-dioxo-pyrazolidin-(4Z)-ylidenemethyl]-furan-2-yl}-benzoic acid ethyl ester]
Ki (PDZ domain of PICK1): 13.7 µM

CC(C)C[C@H](NC(=O)[C@H](Cc1c[nH]c2ccccc12)NC(=O)[C@H](Cc1c[nH]cn1)NC(=O)[C@H](CCCNC(=N)N)NC(=O)[C@H](CC(C)C)NC(=O)[C@@H](NC(=O)[C@H](Cc1ccccc1)NC(=O)[C@H](CCC(N)=O)NC(=O)[C@H](CCCNC(=N)N)NC(=O)[C@@H](NC(=O)[C@@H](N)CCC(=O)O)C(C)C)[C@@H](C)O)C(=O)N[C@@H](CCCCN)C(=O)N[C@H](C(=O)O)C(C)C [DAT peptide, reference compound] (H-EVRQFTLRHWLKV-OH; N-terminus and C-terminus assumed)
potency in displacing the fluorescently tagged tracer (in words) (PDZ domain of PICK1): more than one order of magnitude more potent

CC(C)(C)c1ccc(O)c(/N=C/c2cc(N=Nc3ccc(Cl)cc3)ccc2O)c1 [q, 4-tert-Butyl-2-{[1-[5-(4-chloro-phenylazo)-2-hydroxy-phenyl]-meth-(E)-ylidene]-amino}-phenol]
Ki (PDZ domain of PICK1): 19.1 µM

β2 AR peptide: peptide corresponding to the 13 C-terminal residues of the β2 AR, type I PDZ binding sequence -DSLL; specificity control (SQGRNCSTNDSLL; UniProt P07550 401-413, looked up, fragment) [reference compound]
apparent affinity (in words) (PICK1; fluorescently labeled peptide): very low apparent affinity | potency in displacing the fluorescently tagged tracer (in words) (PDZ domain of PICK1): much less potent
